How the values were obtained:
BRM = target: T1, BRM (Homo sapiens, UniProt P51531); assay: ATPase catalytic activity of BRM, ADP-Glo in vitro biochemical assay; details: for IC50: ATPase catalytic activity, ADP-Glo, 30 nM BRM, 400 μM ATP; for Ratio*: ratio of BRG1 IC50 to BRM IC50
T1 construct: made in house; host or cells: High Five insect cells
Procedure, shortened: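 Recombinant BRM (30 nM) hydrolysed 400 μM ATP with 20 nM salmon sperm DNA in pH 8 Tris buffer containing 20 mM MgCl2, 50 mM NaCl, 0.1% Tween-20 and 1 mM DTT, 1 h at room temperature. ADP formed was quantified by ADP-Glo luminescence.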

BRG-1 = target: T2, BRG-1 (Homo sapiens, UniProt P51532); assay: ATPase catalytic activity of BRG-1, ADP-Glo in vitro biochemical assay; details: ATPase catalytic activity, ADP-Glo; 30 nM BRG-1, 400 μM ATP; read-out: BRG1 IC50
T2 construct: made in house; host or cells: High Five insect cells
T2 sequence (P51532 whole entry): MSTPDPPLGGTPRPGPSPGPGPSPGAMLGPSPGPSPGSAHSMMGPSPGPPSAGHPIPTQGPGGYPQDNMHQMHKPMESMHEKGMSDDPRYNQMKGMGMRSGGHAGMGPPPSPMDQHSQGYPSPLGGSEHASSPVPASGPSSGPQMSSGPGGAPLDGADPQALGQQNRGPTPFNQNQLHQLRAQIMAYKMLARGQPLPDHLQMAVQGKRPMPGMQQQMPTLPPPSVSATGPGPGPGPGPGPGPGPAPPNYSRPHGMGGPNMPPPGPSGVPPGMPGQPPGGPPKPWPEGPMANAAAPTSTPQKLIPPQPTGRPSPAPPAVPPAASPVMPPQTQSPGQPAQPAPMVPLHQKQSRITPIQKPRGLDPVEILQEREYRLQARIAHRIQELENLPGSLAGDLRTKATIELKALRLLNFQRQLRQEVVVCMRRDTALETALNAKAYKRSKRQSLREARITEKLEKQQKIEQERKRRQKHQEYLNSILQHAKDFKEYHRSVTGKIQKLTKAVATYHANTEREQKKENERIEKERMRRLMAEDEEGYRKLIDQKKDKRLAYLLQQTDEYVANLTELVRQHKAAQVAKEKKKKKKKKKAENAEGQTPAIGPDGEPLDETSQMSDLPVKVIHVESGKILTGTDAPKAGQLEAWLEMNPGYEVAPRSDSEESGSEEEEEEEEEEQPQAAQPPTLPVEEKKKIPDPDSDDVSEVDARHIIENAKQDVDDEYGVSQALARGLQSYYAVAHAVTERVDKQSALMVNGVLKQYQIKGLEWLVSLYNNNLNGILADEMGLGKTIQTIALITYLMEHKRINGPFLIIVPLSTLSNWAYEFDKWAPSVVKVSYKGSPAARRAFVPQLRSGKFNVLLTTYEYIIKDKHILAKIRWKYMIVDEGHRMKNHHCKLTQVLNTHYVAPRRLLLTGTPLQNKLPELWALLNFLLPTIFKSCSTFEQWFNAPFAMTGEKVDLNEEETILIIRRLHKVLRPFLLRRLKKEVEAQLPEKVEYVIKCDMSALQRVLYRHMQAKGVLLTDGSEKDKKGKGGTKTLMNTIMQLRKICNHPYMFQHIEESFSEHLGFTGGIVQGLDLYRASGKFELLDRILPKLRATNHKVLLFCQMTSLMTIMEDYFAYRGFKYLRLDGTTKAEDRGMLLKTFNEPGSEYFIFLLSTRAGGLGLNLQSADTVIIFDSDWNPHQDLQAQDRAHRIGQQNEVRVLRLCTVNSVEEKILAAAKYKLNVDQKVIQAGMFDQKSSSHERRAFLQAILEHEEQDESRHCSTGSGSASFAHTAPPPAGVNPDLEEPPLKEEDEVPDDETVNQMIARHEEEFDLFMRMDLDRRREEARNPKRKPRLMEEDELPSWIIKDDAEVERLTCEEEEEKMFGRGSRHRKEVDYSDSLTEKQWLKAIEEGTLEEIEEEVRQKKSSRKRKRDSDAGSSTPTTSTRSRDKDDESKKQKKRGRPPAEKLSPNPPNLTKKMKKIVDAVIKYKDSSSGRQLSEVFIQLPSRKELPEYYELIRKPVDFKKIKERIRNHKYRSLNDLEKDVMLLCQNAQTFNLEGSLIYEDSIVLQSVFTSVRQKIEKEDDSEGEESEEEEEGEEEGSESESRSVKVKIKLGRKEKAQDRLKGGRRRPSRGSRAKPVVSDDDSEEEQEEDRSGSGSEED
Procedure, shortened: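 Biochemical ADP-Glo assay, BRG-1. Post-reaction: ATP depletion reagent, 40 min RT; ADP→ATP conversion/detection reagent, 60 min RT; luminescence read on plate luminometer.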

T1 sequence (P51531 whole entry): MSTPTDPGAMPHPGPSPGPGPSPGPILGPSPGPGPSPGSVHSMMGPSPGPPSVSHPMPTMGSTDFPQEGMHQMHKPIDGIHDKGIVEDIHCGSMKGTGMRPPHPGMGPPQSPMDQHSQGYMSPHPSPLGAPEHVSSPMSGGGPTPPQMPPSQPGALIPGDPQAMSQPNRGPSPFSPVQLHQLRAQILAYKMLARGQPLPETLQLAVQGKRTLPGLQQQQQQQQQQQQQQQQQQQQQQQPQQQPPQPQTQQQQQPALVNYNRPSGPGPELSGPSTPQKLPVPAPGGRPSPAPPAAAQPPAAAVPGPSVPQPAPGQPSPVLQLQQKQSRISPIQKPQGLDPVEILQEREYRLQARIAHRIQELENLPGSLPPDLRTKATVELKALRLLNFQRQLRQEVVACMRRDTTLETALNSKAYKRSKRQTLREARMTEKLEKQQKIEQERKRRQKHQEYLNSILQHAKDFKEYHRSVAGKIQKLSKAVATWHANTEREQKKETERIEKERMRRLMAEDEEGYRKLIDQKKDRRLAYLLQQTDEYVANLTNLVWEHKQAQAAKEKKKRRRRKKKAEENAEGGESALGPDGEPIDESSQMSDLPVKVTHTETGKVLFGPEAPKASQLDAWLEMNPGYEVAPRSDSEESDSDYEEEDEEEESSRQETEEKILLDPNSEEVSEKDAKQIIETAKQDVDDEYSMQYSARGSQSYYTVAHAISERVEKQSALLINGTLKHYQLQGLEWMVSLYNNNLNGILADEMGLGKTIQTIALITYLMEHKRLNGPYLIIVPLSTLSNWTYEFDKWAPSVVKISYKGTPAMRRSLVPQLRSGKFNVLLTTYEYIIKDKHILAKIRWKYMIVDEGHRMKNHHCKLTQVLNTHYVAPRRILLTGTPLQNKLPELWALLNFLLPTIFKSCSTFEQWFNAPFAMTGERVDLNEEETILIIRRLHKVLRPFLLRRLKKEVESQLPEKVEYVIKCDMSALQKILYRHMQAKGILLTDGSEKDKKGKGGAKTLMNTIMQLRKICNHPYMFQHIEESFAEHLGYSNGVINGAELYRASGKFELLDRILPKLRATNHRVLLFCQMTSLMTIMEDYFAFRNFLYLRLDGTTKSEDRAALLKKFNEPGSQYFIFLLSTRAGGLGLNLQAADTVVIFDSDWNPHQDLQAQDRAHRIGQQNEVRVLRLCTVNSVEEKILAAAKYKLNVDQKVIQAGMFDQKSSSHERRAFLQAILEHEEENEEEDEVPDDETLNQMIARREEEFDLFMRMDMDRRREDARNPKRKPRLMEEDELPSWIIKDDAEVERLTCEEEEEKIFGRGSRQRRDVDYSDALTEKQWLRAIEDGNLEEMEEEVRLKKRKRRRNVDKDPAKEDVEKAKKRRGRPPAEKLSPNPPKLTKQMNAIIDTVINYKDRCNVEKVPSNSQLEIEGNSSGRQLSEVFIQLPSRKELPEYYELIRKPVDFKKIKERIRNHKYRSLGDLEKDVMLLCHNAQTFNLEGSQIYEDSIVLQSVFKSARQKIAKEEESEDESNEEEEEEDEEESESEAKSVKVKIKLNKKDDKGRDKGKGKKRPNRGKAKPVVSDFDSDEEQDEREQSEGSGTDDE

SMILES	IC50 (BRM) [nM]	Ratio* (BRM)	IC50 (BRG-1) [nM]
COCCN1c2cccc(-c3ccc4cnc(CNC(=O)c5ccc6c(c5)S(=O)(=O)CCOC6)cc4n3)c2OCC1C (stereo not drawn) [Compound 326]	9.9	8.22	81
O=C(NCc1cc2nc(-c3ccc(Cl)c(OC(F)F)n3)ccc2cn1)c1ccc2c(c1)S(=O)(=O)CCOC2 [Compound 327]	19.2	15.15	291
COc1nc(C(F)F)ccc1-c1ccc2cnc(CNC(=O)c3ccc4c(c3)S(=O)(=O)CCOC4)cc2n1 [Compound 329]	8.6	15.19	130
CCOc1cccc(-c2ccc3cnc(CNC(=O)c4ccc5c(c4)S(=O)(=O)[C@@H](C)COC5)cc3n2)n1 [Compound 330]	11	43.09	473
C[C@H]1COCc2ccc(C(=O)NCc3cc4nc(-c5cccc(C6CC6)n5)ccc4cn3)cc2S1(=O)=O [Compound 331]	13.5	30.98	418
CO[C@H]1CN(c2cccc(-c3ccc4cnc(CNC(=O)c5ccc6c(c5)S(=O)(=O)CCOC6)cc4n3)n2)C[C@H]1F [Compound 332]	16.6	13.49	224
CO[C@@H]1CN(c2cccc(-c3ccc4cnc(CNC(=O)c5ccc6c(c5)S(=O)(=O)CCOC6)cc4n3)n2)C[C@@H]1F [Compound 333]	17.1	13.29	227
C[C@@H]1C[C@@H](N(C)c2cccc(-c3ccc4cnc(CNC(=O)c5ccc6c(c5)S(=O)(=O)CCOC6)cc4n3)n2)C[C@H](C)O1 [Compound 334]	21.2	17.82	377
COc1cc(C(F)(F)F)ccc1-c1ccc2cnc(CNC(=O)c3ccc4c(c3)S(=O)(=O)CCOC4)cc2n1 [Compound 335]	24.3	11.87	288
COCCn1ccc2c(-c3ccc4cnc(CNC(=O)c5ccc6c(c5)S(=O)(=O)CCOC6)cc4n3)ccnc21 [Compound 336]	6.6	16.08	107
CCN(c1cccc(-c2ccc3cnc(CNC(=O)c4ccc5c(c4)S(=O)(=O)CCOC5)cc3n2)n1)C1CC1 [Compound 337]	21.9	9.67	211
CCN(c1cccc(-c2ccc3cnc(CNC(=O)c4cc(F)c5c(c4)S(=O)(=O)CCOC5)cc3n2)n1)C1CC1 [Compound 338]	20.1	10.88	219
CO[C@H]1CN(c2cccc(-c3ccc4cnc(CNC(=O)c5ccc6c(c5)S(=O)(=O)CCOC6)cc4n3)n2)C[C@@H]1F [Compound 339]	9.6	8.89	85.8
CO[C@@H]1CN(c2cccc(-c3ccc4cnc(CNC(=O)c5ccc6c(c5)S(=O)(=O)CCOC6)cc4n3)n2)C[C@H]1F [Compound 340]	22.2	13.96	309
O=C(NCc1cc2nc(-c3cccc(N4CCOCC(F)(F)C4)n3)ccc2cn1)c1ccc2c(c1)S(=O)(=O)CCOC2 [Compound 341]	25.1	7.37	185
CN1CC[C@H](Oc2cccc(-c3ccc4cnc(CNC(=O)c5ccc6c(c5)S(=O)(=O)CCOC6)cc4n3)n2)C1 [Compound 342]	283	15.24	4320
COC1CCS(=O)(=O)c2cc(C(=O)NCc3cc4nc(-c5cccc(N6C[C@@H](C)O[C@@H](C)C6)n5)ccc4cn3)ccc2C1 (stereo partly drawn) [Compound 344]	7.6	2.68	20.3

SMILES	IC50 (BRM) [nM]	Ratio* (BRM)	IC50 (BRG-1) [nM]
CCN(C[C@H](C)OC)c1cccc(-c2ccc3cnc(CNC(=O)c4ccc5c(c4)S(=O)(=O)CCOC5)cc3n2)n1 [Compound 345]	15	16.77	251
COC[C@H]1C[C@H]1c1cccc(-c2ccc3cnc(CNC(=O)c4ccc5c(c4)S(=O)(=O)CCOC5)cc3n2)n1 [Compound 346]	368	7.55	2770
COCCN(C)c1cccc(-c2ccc3cnc(CNC(=O)c4ccc5c(c4)S(=O)(=O)CCOC5)cc3n2)c1OC [Compound 347]	1230	3.03	3730
CS(=O)(=O)c1cc(C(=O)NCc2cc3nc(-c4cn([C@H]5C[C@H](F)C5)nc4OC(F)F)ccc3cn2)ccc1C(F)F [Compound 348]	74.3	34.42	2560
COCCN(c1cccc(-c2ccc3cnc(CNC(=O)c4ccc5c(c4)S(=O)(=O)CCOC5)cc3n2)n1)C1CC1 [Compound 349]	24.1	10.47	253
Cc1ccc2c(c1)CCCN2c1ccc2cnc(CNC(=O)c3ccc4c(c3)S(=O)(=O)CCOC4)cc2n1 [Compound 350]	8.1	12.99	105
CO[C@H]1CCN(c2cccc(-c3ccc4cnc(CNC(=O)c5ccc6c(c5)S(=O)(=O)CCOC6)cc4n3)n2)C[C@@H]1C [Compound 352]	60.2	8.02	483
CO[C@@H]1CCN(c2cccc(-c3ccc4cnc(CNC(=O)c5ccc6c(c5)S(=O)(=O)CCOC6)cc4n3)n2)C[C@H]1C [Compound 353]	9.5	13.13	125
Cc1cc(C(=O)NCc2cc3nc(-c4cccc(N5C[C@@H](C)O[C@@H](C)C5)n4)ccc3cn2)cc2c1COCCS2(=O)=O [Compound 354]	14	29.57	415
C[C@@H]1CN(c2cccc(-c3ccc4cnc(CNC(=O)c5cc(C(F)F)c6c(c5)S(=O)(=O)CCOC6)cc4n3)n2)C[C@H](C)O1 [Compound 355]	8.7	7.36	63.9
O=C(NCc1cc2nc(-c3ccc(C(F)F)cc3OC3CC3)ccc2cn1)c1ccc2c(c1)S(=O)(=O)CCOC2 [Compound 357]	21.4	13.72	293
COCCN(CC(F)F)c1cccc(-c2ccc3cnc(CNC(=O)c4ccc5c(c4)S(=O)(=O)CCOC5)cc3n2)n1 [Compound 358]	4.6	7.69	35.4
CN(CCOC1CC1)c1cccc(-c2ccc3cnc(CNC(=O)c4ccc5c(c4)S(=O)(=O)CCOC5)cc3n2)n1 [Compound 361]	7.4	19.62	145
C[C@@H]1CN(c2cccc(-c3ccc4cnc(CNC(=O)c5ccc6c(c5)S(=O)(=O)[C@H](C)CC6)cc4n3)n2)C[C@H](C)O1 [Compound 362]	16.9	14.06	238
CC1Cc2ccc(C(=O)NCc3cc4nc(-c5cccc(N6C[C@@H](C)O[C@@H](C)C6)n5)ccc4cn3)cc2S1(=O)=O (stereo partly drawn) [Compound 364]	19	12.21	231
CC(C)S(=O)(=O)c1cccc(C(=O)NCc2cc3nc(-c4cccc(N5C[C@@H](C)O[C@@H](C)C5)n4)ccc3cn2)c1 [Compound 365]	13.1	24.88	325
COCCOc1cc(C(F)F)ccc1-c1ccc2cnc(CNC(=O)c3ccc4c(c3)S(=O)(=O)CCOC4)cc2n1 [Compound 366]	324	9.14	2960

Source: patent US20230416248A1, “COMPOUNDS AND USES THEREOF” (Foghorn Therapeutics Inc., priority 2020, published 2023)
